Experiments:
Assay in all cases: Post-emergence test, weed control effect
Format in all cases: in vivo
Conditions in all cases: Dose 3000 g/ha, after 3 weeks
[1] = system: Amaranthus retroflexus
From the text: (§1) The activity level standard of harmful plant destruction (i.e. growth inhibition rate) is as follows: • Level 10: completely dead; • Level 9: above 90% growth inhibition rate; • Level 8: above 80% growth inhibition rate; • Level 7: above 70% growth inhibition rate; • Level 6: above 60% growth inhibition rate; • Level 5: above 50% growth inhibition rate; • Level 4: above 40% growth inhibition rate; • Level 3: above 30% growth inhibition rate; • Level 2: above 20% growth inhibition rate; • Level 1: below 20% growth inhibition rate; • Level 0: no effect.
(§2) The above described growth inhibition rates are fresh weight inhibition rates.
(§3) Experiment of post-emergence test: monocotyledonous and dicotyledonous weed seeds as well as main crop seeds (i.e., wheat, corn, rice, soybean, cotton, oilseed rape, millet and sorghum) were put into a plastic pot loaded with soil, then covered with 0.5-2 cm of soil, and the seeds were allowed to grow in good greenhouse environment. The test plants were treated at 2-3 leaf stage 2-3 weeks after sowing. The test compounds of the invention were dissolved in acetone respectively, then added with Tween-80 and diluted by a certain amount of water to give solutions with certain concentrations, and added with 80% vegetable oil methyl ester synergist at 1500 g/ha. The solution was sprayed to the plants with a sprayer. The plants were cultured for 3 weeks in the greenhouse.

[2] = system: Chenopodiaceae
From the text: as §1, §2, §3

[3] = system: Rorippa indica
From the text: as §1, §2, §3

[4] = system: Veronica polita
From the text: as §1, §2, §3

CC(=O)Oc1cc(C(F)(F)F)nnc1-c1cccc(F)c1 [Compound 1-1]
10: weed control effect, Amaranthus retroflexus (activity level) [1] | weed control effect, Chenopodiaceae (activity level) [2] | weed control effect, Rorippa indica (activity level) [3] | weed control effect, Veronica polita (activity level) [4]

CC(=O)Oc1cc(C(F)(F)F)nnc1-c1ccc(F)cc1 [Compound 1-2]
10: weed control effect, Amaranthus retroflexus (activity level) [1] | weed control effect, Chenopodiaceae (activity level) [2] | weed control effect, Rorippa indica (activity level) [3] | weed control effect, Veronica polita (activity level) [4]

CCC(=O)Oc1cc(C(F)(F)F)nnc1-c1ccc(F)c(F)c1 [Compound 1-3]
10: weed control effect, Amaranthus retroflexus (activity level) [1] | weed control effect, Chenopodiaceae (activity level) [2] | weed control effect, Rorippa indica (activity level) [3] | weed control effect, Veronica polita (activity level) [4]

CCC(=O)Oc1cc(C(F)(F)F)nnc1-c1ccc(F)cc1 [Compound 1-4]
10: weed control effect, Amaranthus retroflexus (activity level) [1] | weed control effect, Chenopodiaceae (activity level) [2] | weed control effect, Rorippa indica (activity level) [3] | weed control effect, Veronica polita (activity level) [4]

CCCCC(=O)Oc1cc(C(F)(F)F)nnc1-c1ccc(Cl)c(Cl)c1 [Compound 1-7]
10: weed control effect, Amaranthus retroflexus (activity level) [1] | weed control effect, Chenopodiaceae (activity level) [2] | weed control effect, Rorippa indica (activity level) [3] | weed control effect, Veronica polita (activity level) [4]

CC(C)CC(=O)Oc1cc(C(F)(F)F)nnc1-c1cccc(C(F)(F)F)c1 [Compound 1-8]
10: weed control effect, Amaranthus retroflexus (activity level) [1] | weed control effect, Chenopodiaceae (activity level) [2] | weed control effect, Rorippa indica (activity level) [3] | weed control effect, Veronica polita (activity level) [4]

CC(C)(C)C(=O)Oc1cc(C(F)(F)F)nnc1-c1ccc(C(F)(F)F)nc1 [Compound 1-9]
10: weed control effect, Amaranthus retroflexus (activity level) [1] | weed control effect, Chenopodiaceae (activity level) [2] | weed control effect, Rorippa indica (activity level) [3] | weed control effect, Veronica polita (activity level) [4]

CCCCCC(=O)Oc1cc(C(F)(F)F)nnc1-c1ccc(C#N)cc1 [Compound 1-10]
10: weed control effect, Amaranthus retroflexus (activity level) [1] | weed control effect, Chenopodiaceae (activity level) [2] | weed control effect, Rorippa indica (activity level) [3] | weed control effect, Veronica polita (activity level) [4]

CCCCCCCC(=O)Oc1cc(C(F)(F)F)nnc1-c1ccc(F)c(F)c1 [Compound 1-14]
10: weed control effect, Amaranthus retroflexus (activity level) [1] | weed control effect, Chenopodiaceae (activity level) [2] | weed control effect, Rorippa indica (activity level) [3] | weed control effect, Veronica polita (activity level) [4]

CCCCCCCCC(=O)Oc1cc(C(F)(F)F)nnc1-c1cccc(Br)c1 [Compound 1-15]
10: weed control effect, Amaranthus retroflexus (activity level) [1] | weed control effect, Chenopodiaceae (activity level) [2] | weed control effect, Rorippa indica (activity level) [3] | weed control effect, Veronica polita (activity level) [4]

O=C(CC1CCCC1)Oc1cc(C(F)(F)F)nnc1-c1ccc(C(F)(F)F)cc1 [Compound 1-18]
10: weed control effect, Amaranthus retroflexus (activity level) [1] | weed control effect, Chenopodiaceae (activity level) [2] | weed control effect, Rorippa indica (activity level) [3] | weed control effect, Veronica polita (activity level) [4]

O=C(Oc1cc(C(F)(F)F)nnc1-c1ccccc1)C1CCCCC1 [Compound 1-19]
10: weed control effect, Amaranthus retroflexus (activity level) [1] | weed control effect, Chenopodiaceae (activity level) [2] | weed control effect, Rorippa indica (activity level) [3] | weed control effect, Veronica polita (activity level) [4]

CC(Cl)C(=O)Oc1cc(C(F)(F)F)nnc1-c1ccc(C(F)(F)F)cc1 (stereo not shown) [Compound 1-22]
10: weed control effect, Amaranthus retroflexus (activity level) [1] | weed control effect, Chenopodiaceae (activity level) [2] | weed control effect, Rorippa indica (activity level) [3] | weed control effect, Veronica polita (activity level) [4]

O=C(CCCBr)Oc1cc(C(F)(F)F)nnc1-c1ccc(F)c(F)c1 [Compound 1-23]
10: weed control effect, Amaranthus retroflexus (activity level) [1] | weed control effect, Chenopodiaceae (activity level) [2] | weed control effect, Rorippa indica (activity level) [3] | weed control effect, Veronica polita (activity level) [4]

O=C(Oc1cc(C(F)(F)F)nnc1-c1ccc(F)cc1)C(F)(F)C(F)(F)C(F)(F)F [Compound 1-25]
10: weed control effect, Amaranthus retroflexus (activity level) [1] | weed control effect, Chenopodiaceae (activity level) [2] | weed control effect, Rorippa indica (activity level) [3] | weed control effect, Veronica polita (activity level) [4]

CCOC(=O)Oc1cc(C(F)(F)F)nnc1-c1ccc(F)c(F)c1 [Compound 1-26]
10: weed control effect, Amaranthus retroflexus (activity level) [1] | weed control effect, Chenopodiaceae (activity level) [2] | weed control effect, Rorippa indica (activity level) [3] | weed control effect, Veronica polita (activity level) [4]

CCCCOC(=O)Oc1cc(C(F)(F)F)nnc1-c1ccc(F)cc1 [Compound 1-29]
10: weed control effect, Amaranthus retroflexus (activity level) [1] | weed control effect, Chenopodiaceae (activity level) [2] | weed control effect, Rorippa indica (activity level) [3] | weed control effect, Veronica polita (activity level) [4]

CC(C)COC(=O)Oc1cc(C(F)(F)F)nnc1-c1cccc(C(F)(F)F)c1 [Compound 1-30]
10: weed control effect, Amaranthus retroflexus (activity level) [1] | weed control effect, Chenopodiaceae (activity level) [2] | weed control effect, Rorippa indica (activity level) [3] | weed control effect, Veronica polita (activity level) [4]

CCCCCOC(=O)Oc1cc(C(F)(F)F)nnc1-c1ccc(F)c(F)c1 [Compound 1-31]
10: weed control effect, Amaranthus retroflexus (activity level) [1] | weed control effect, Chenopodiaceae (activity level) [2] | weed control effect, Rorippa indica (activity level) [3] | weed control effect, Veronica polita (activity level) [4]

Cc1ccc(-c2nnc(C(F)(F)F)cc2OC(=O)OCC(C)(C)C)c([N+](=O)[O-])c1 [Compound 1-33]
10: weed control effect, Amaranthus retroflexus (activity level) [1] | weed control effect, Chenopodiaceae (activity level) [2] | weed control effect, Rorippa indica (activity level) [3] | weed control effect, Veronica polita (activity level) [4]

CCCCCCOC(=O)Oc1cc(C(F)(F)F)nnc1-c1ccc(Cl)c([N+](=O)[O-])c1 [Compound 1-35]
10: weed control effect, Amaranthus retroflexus (activity level) [1] | weed control effect, Chenopodiaceae (activity level) [2] | weed control effect, Rorippa indica (activity level) [3] | weed control effect, Veronica polita (activity level) [4]

CCCCC(CC)OC(=O)Oc1cc(C(F)(F)F)nnc1-c1ccc(Br)c([N+](=O)[O-])c1 (stereo not shown) [Compound 1-36]
10: weed control effect, Amaranthus retroflexus (activity level) [1] | weed control effect, Chenopodiaceae (activity level) [2] | weed control effect, Rorippa indica (activity level) [3] | weed control effect, Veronica polita (activity level) [4]

CCCCCCCOC(=O)Oc1cc(C(F)(F)F)nnc1-c1ccc(Cl)c(Cl)c1Cl [Compound 1-38]
10: weed control effect, Amaranthus retroflexus (activity level) [1] | weed control effect, Chenopodiaceae (activity level) [2] | weed control effect, Rorippa indica (activity level) [3] | weed control effect, Veronica polita (activity level) [4]

CCCCCCCCOC(=O)Oc1cc(C(F)(F)F)nnc1-c1ccc(C(F)(F)F)cc1 [Compound 1-40]
10: weed control effect, Amaranthus retroflexus (activity level) [1] | weed control effect, Chenopodiaceae (activity level) [2] | weed control effect, Rorippa indica (activity level) [3] | weed control effect, Veronica polita (activity level) [4]

CCSC(=O)Oc1cc(C(F)(F)F)nnc1-c1ccc(F)c(F)c1 [Compound 1-42]
10: weed control effect, Amaranthus retroflexus (activity level) [1] | weed control effect, Chenopodiaceae (activity level) [2] | weed control effect, Rorippa indica (activity level) [3] | weed control effect, Veronica polita (activity level) [4]

CC(C)(C)SC(=O)Oc1cc(C(F)(F)F)nnc1-c1cc(Cl)ccc1Cl [Compound 1-47]
10: weed control effect, Amaranthus retroflexus (activity level) [1] | weed control effect, Chenopodiaceae (activity level) [2] | weed control effect, Rorippa indica (activity level) [3] | weed control effect, Veronica polita (activity level) [4]

CC(C)(C)CSC(=O)Oc1cc(C(F)(F)F)nnc1-c1cccc(Br)c1 [Compound 1-51]
10: weed control effect, Amaranthus retroflexus (activity level) [1] | weed control effect, Chenopodiaceae (activity level) [2] | weed control effect, Rorippa indica (activity level) [3] | weed control effect, Veronica polita (activity level) [4]

CCCCCCCSC(=O)Oc1cc(C(F)(F)F)nnc1-c1ccc(Cl)c(Cl)c1 [Compound 1-53]
10: weed control effect, Amaranthus retroflexus (activity level) [1] | weed control effect, Chenopodiaceae (activity level) [2] | weed control effect, Rorippa indica (activity level) [3] | weed control effect, Veronica polita (activity level) [4]

CCCCCCCCSC(=O)Oc1cc(C(F)(F)F)nnc1-c1ccc(F)cc1 [Compound 1-54]
10: weed control effect, Amaranthus retroflexus (activity level) [1] | weed control effect, Chenopodiaceae (activity level) [2] | weed control effect, Rorippa indica (activity level) [3] | weed control effect, Veronica polita (activity level) [4]

O=C(Oc1cc(C(F)(F)F)nnc1-c1ccccc1)SC1CCCCC1 [Compound 1-58]
10: weed control effect, Amaranthus retroflexus (activity level) [1] | weed control effect, Chenopodiaceae (activity level) [2] | weed control effect, Rorippa indica (activity level) [3] | weed control effect, Veronica polita (activity level) [4]

CN(C)C(=O)Oc1cc(C(F)(F)F)nnc1-c1ccc(F)c(F)c1 [Compound 1-60]
10: weed control effect, Amaranthus retroflexus (activity level) [1] | weed control effect, Chenopodiaceae (activity level) [2] | weed control effect, Rorippa indica (activity level) [3] | weed control effect, Veronica polita (activity level) [4]

CCON(C)C(=O)Oc1cc(C(F)(F)F)nnc1-c1ccc(F)cc1 [Compound 1-63]
10: weed control effect, Amaranthus retroflexus (activity level) [1] | weed control effect, Chenopodiaceae (activity level) [2] | weed control effect, Rorippa indica (activity level) [3] | weed control effect, Veronica polita (activity level) [4]

COC(=O)/C=C/c1nnc(C(F)(F)F)cc1O [Compound 1522]
10: weed control effect (activity level), Amaranthus retroflexus [1] | weed control effect (activity level), Chenopodiaceae [2]

Source: patent publication US12568972B2, “Pyridazinol compounds and derivatives, preparation methods, herbicidal compositions and applications thereof” (Qingdao Kingagroot Chemical Compound Co., Ltd., priority 2018, dated 2026)
